Measurements reported in ChEMBL document CHEMBL5537177, “Discovery of Potent Antimalarial Type II Kinase Inhibitors with Selectivity over Human Kinases” (J Med Chem, 2024).

Legend:
[1] = tested on: Plasmodium falciparum; assay: Antimalarial activity against Plasmodium falciparum harboring AcAS A597V mutation assessed as reduction in parasitemia incubated for 72 hrs by SYBR green I dye based analysis; format: functional, organism-based
[2] = tested on: Plasmodium falciparum; assay: Antimalarial activity against Plasmodium falciparum harboring PI4K S1320L mutation assessed as reduction in parasitemia incubated for 72 hrs by SYBR green I dye based analysis; format: functional, organism-based
[3] = tested on: Plasmodium falciparum; assay: microbe, parasite or virus in culture; settings: Dd2, 72 h
Description: Antimalarial activity against wild-type Plasmodium falciparum Dd2 assessed as reduction in parasitemia incubated for 72 hrs by SYBR green I dye based analysis

[4] = tested on: Plasmodium falciparum; assay: Antimalarial activity against Plasmodium falciparum harboring CARL I1139K mutation assessed as reduction in parasitemia incubated for 72 hrs by SYBR green I dye based analysis; format: functional, organism-based
[5] = tested on: HepG2; assay: Cytotoxicity against human HepG2 cells assessed as reduction in cell viability incubated for 48 hrs by MTS assay; format: toxicity, cell-based; settings: hepg2
[6] = Metabolic stability in mouse liver microsomes assessed as intrinsic clearance; format: ADME, Liver cells
[7] = Selectivity index, ratio of EC50 for human HepG2 cells to EC50 for multidrug-resistant Plasmodium falciparum Dd2 at ring stage infected in A+ erythrocytes; format: toxicity, cell-based; settings: read-out: Ratio EC50
[8] = tested on: Plasmodium falciparum; assay: Antiplasmodial activity against multidrug-resistant Plasmodium falciparum Dd2 at ring stage infected in A+ erythrocytes assessed as parasite growth reduction incubated for 72 hrs by SYBR Green I dye based analysis; format: functional, organism-based; settings: Dd2, Erythrocyte
[9] = Metabolic stability in mouse liver microsomes assessed as half life; format: ADME, Liver cells
[10] = tested on: MCF7; assay: Cytotoxicity against human MCF7 cells assessed as reduction in cell viability incubated for 48 hrs by MTS assay; format: toxicity, cell-based; settings: mcf7
[11] = tested on: Plasmodium falciparum; assay: Resistance index, ratio of EC50 for multidrug-resistant Plasmodium falciparum Dd2 at ring stage infected in A+ erythrocytes to EC50 for drug-sensitive Plasmodium falciparum 3D7 at ring stage infected in A+ erythrocytes; format: organism-based; settings: human
[12] = tested on: Plasmodium falciparum; assay: Antiplasmodial activity against drug-sensitive Plasmodium falciparum 3D7 at ring stage infected in A+ erythrocytes assessed as parasite growth reduction incubated for 72 hrs by SYBR Green I dye based analysis; format: functional, organism-based; settings: 3D7, Erythrocyte
[13] = Selectivity index, ratio of EC50 for human MCF7 cells to EC50 for multidrug-resistant Plasmodium falciparum Dd2 at ring stage infected in A+ erythrocytes; format: toxicity, cell-based; settings: read-out: Ratio EC50

SMILES: CNC(=O)c1ccc(-c2cnc3cnc(C(=O)N(C)c4ccc(Cl)cc4)cn23)cc1
- EC50 [1]: 0.0042 µM
- EC50 [2]: 0.0676 µM
- EC50 [3]: 0.006 µM
- EC50 [4]: 0.0098 µM

SMILES: CCN1CCN(Cc2ccc(NC(=O)c3cc(Cl)cc(NC(=O)c4cccnc4)c3)cc2C(F)(F)F)CC1
- EC50 [5]: 10.4 µM
- intrinsic clearance [6]: 46 µL/min/mg
- selectivity ratio [7]: 71
- EC50 [8]: 0.147 µM
- t1/2 [9]: 15.1 min
- EC50 [10]: 11 µM
- Ratio EC50 [11]: 1.2
- EC50 [12]: 0.127 µM
- selectivity ratio [13]: 75

SMILES: CCN1CCN(Cc2ccc(NC(=O)c3cc(Cl)cc(C(=O)Nc4cncc(-c5cccs5)c4)c3)cc2C(F)(F)F)CC1
- EC50 [5]: 4.24 µM
- selectivity ratio [7]: 39
- EC50 [8]: 0.109 µM
- EC50 [10]: 5.36 µM
- Ratio EC50 [11]: 1.3
- EC50 [12]: 0.082 µM
- selectivity ratio [13]: 49

SMILES: CCN1CCN(Cc2ccc(NC(=O)c3cc(Br)cc(NC(=O)c4cncc(-c5cccs5)c4)c3)cc2C(F)(F)F)CC1
- EC50 [5]: 4.38 µM
- intrinsic clearance [6]: 17 µL/min/mg
- selectivity ratio [7]: 72
- EC50 [8]: 0.061 µM
- t1/2 [9]: 40.7 min
- EC50 [10]: 6.59 µM
- Ratio EC50 [11]: 1.6
- EC50 [12]: 0.039 µM
- selectivity ratio [13]: 108

SMILES: CCN1CCN(Cc2ccc(NC(=O)c3cc(Cl)cc(NC(=O)N4CCN(C)CC4)c3)cc2C(F)(F)F)CC1
- EC50 [5]: 14 µM
- selectivity ratio [7]: 11
- EC50 [8]: 1.23 µM
- EC50 [10]: 18.8 µM
- Ratio EC50 [11]: 0.6
- EC50 [12]: 2.12 µM
- selectivity ratio [13]: 15

SMILES: CCN1CCN(Cc2ccc(NC(=O)c3cncc(NC(=O)c4cncc(-c5cccs5)c4)c3)cc2C(F)(F)F)CC1
- EC50 [5]: 2.55 µM
- intrinsic clearance [6]: 36 µL/min/mg
- selectivity ratio [7]: 34
- EC50 [8]: 0.076 µM
- t1/2 [9]: 19.1 min
- EC50 [10]: 4.71 µM
- Ratio EC50 [11]: 1.1
- EC50 [12]: 0.07 µM
- selectivity ratio [13]: 62

SMILES: CCN1CCN(Cc2ccc(NC(=O)c3ccc(OC)c(NC(=O)c4cncc(-c5cccs5)c4)c3)cc2C(F)(F)F)CC1
- EC50 [5]: 3.24 µM
- selectivity ratio [7]: 2.1
- EC50 [8]: 1.54 µM
- EC50 [10]: 5.06 µM
- Ratio EC50 [11]: 1.9
- EC50 [12]: 0.821 µM
- selectivity ratio [13]: 3.3

SMILES: O=C(Nc1cccc(C(F)(F)F)c1)c1cc(Cl)cc(NC(=O)c2cncc(-c3cccs3)c2)c1
- EC50 [5]: > 20 µM
- selectivity ratio [7]: > 18
- EC50 [8]: 1.11 µM
- EC50 [10]: > 20 µM
- Ratio EC50 [11]: 2.1
- EC50 [12]: 0.541 µM
- selectivity ratio [13]: > 18

SMILES: CCN1CCN(Cc2ccc(NC(=O)c3cc(Cl)cc(NC(=O)c4cncc(-c5ccco5)c4)c3)cc2C(F)(F)F)CC1
- EC50 [5]: 5.41 µM
- intrinsic clearance [6]: 12 µL/min/mg
- selectivity ratio [7]: 106
- EC50 [8]: 0.051 µM
- t1/2 [9]: 58.1 min
- EC50 [10]: 6.49 µM
- Ratio EC50 [11]: 0.9
- EC50 [12]: 0.058 µM
- selectivity ratio [13]: 127

SMILES: CCN1CCN(Cc2ccc(NC(=O)c3cc(F)cc(NC(=O)c4cncc(-c5cccs5)c4)c3)cc2C(F)(F)F)CC1
- EC50 [5]: 6.69 µM
- intrinsic clearance [6]: 21 µL/min/mg
- selectivity ratio [7]: 50
- EC50 [8]: 0.135 µM
- t1/2 [9]: 32.4 min
- EC50 [10]: 10.2 µM
- Ratio EC50 [11]: 1.2
- EC50 [12]: 0.113 µM
- selectivity ratio [13]: 76

SMILES: CCN1CCN(Cc2ccc(NC(=O)c3cc(NC(=O)c4cncc(-c5cccs5)c4)cc(C(F)(F)F)c3)cc2C(F)(F)F)CC1
- EC50 [5]: 2.85 µM
- intrinsic clearance [6]: 17 µL/min/mg
- selectivity ratio [7]: 92
- EC50 [8]: 0.031 µM
- t1/2 [9]: 41.4 min
- EC50 [10]: 3.54 µM
- Ratio EC50 [11]: 0.9
- EC50 [12]: 0.035 µM
- selectivity ratio [13]: 114

SMILES: CCN1CCN(Cc2ccc(NC(=O)c3cc(Cl)cc(NC(=O)c4cncc(-c5ccccc5)c4)c3)cc2C(F)(F)F)CC1
- EC50 [5]: 3.29 µM
- intrinsic clearance [6]: 14 µL/min/mg
- selectivity ratio [7]: 66
- EC50 [8]: 0.05 µM
- t1/2 [9]: 50.2 min
- EC50 [10]: 4.35 µM
- Ratio EC50 [11]: 1.2
- EC50 [12]: 0.041 µM
- selectivity ratio [13]: 87

SMILES: CCN1CCN(Cc2ccc(NC(=O)c3ccc(F)c(NC(=O)c4cncc(-c5cccs5)c4)c3)cc2C(F)(F)F)CC1
- EC50 [5]: 3.17 µM
- selectivity ratio [7]: 2.4
- EC50 [8]: 1.32 µM
- EC50 [10]: 5.1 µM
- Ratio EC50 [11]: 1.7
- EC50 [12]: 0.763 µM
- selectivity ratio [13]: 3.9

SMILES: CCN1CCN(Cc2ccc(NC(=O)c3cc(Cl)cc(NC(=O)c4cnc(N)nc4)c3)cc2C(F)(F)F)CC1
- EC50 [5]: 19.2 µM
- selectivity ratio [7]: 27
- EC50 [8]: 0.709 µM
- EC50 [10]: 13.7 µM
- Ratio EC50 [11]: 1.9
- EC50 [12]: 0.378 µM
- selectivity ratio [13]: 19

SMILES: CCN1CCN(Cc2ccc(NC(=O)c3cc(Cl)cc(Nc4cncc(-c5cccs5)c4)c3)cc2C(F)(F)F)CC1
- EC50 [5]: 3.62 µM
- selectivity ratio [7]: 12
- EC50 [8]: 0.296 µM
- EC50 [10]: 5.53 µM
- Ratio EC50 [11]: 1.2
- EC50 [12]: 0.253 µM
- selectivity ratio [13]: 19
